Results on 1 molecule are retold here after patent publication US20100081719A1 (priority 2006, published 2010).

Series [1] relates to patients who meet the 1990 ACR criteria for fibromyalgia syndrome. The series can be described thus: Multicenter, double-blind, randomized, placebo-controlled monotherapy study of milnacipran for treatment of fibromyalgia (Example 2). The format is in vivo, human. Particulars: 3-month treatment period (LOCF), intent-to-treat; for MFI total score, Change from baseline, Difference from Placebo / MFI total score, Change from baseline, LS Mean (SE): ANCOVA. As to the method: This was a multicenter, randomized, double-blind, placebo-controlled three-arm study designed which enrolled 1196 patients who meet the 1990 ACR criteria for fibromyalgia syndrome (history of widespread pain and pain in 11 of 18 tender point sites on digital palpation), as well as the more detailed admission criteria outlined in the protocol.
All randomized medications (placebo and milnacipran) were administered twice a day (BID).
(i) Primary Efficacy Assessments: Patient Global Impression of Change (PGIC) administered to patients at visits Tx3, Tx7, Tx11 and Tx15/ET; Physical Component summary of SF-36 (SF-36 PCS) administered to patients at visits BL2/Tx0, Tx3, Tx7, Tx11 and Tx15/ET; (ii) Secondary Efficacy Assessments: Time weighted average (AUC) of weekly average PED morning recall pain score; PGIC and SF-36 PCS administered to patients at visits Tx3 to Tx15.
(iii) Additional Efficacy Measurements: The Fibromyalgia Impact Questionnaire (FIQ) total score and physical function, Beck Depression Inventory (BDI), the MOS-Sleep Index Scale, the Arizona Sexual Experiences Scale (ASEX), Patient pain 24 hour and 7 day recall VAS, the SF-36 individual domains, Patient Global Disease Status, Patient Global Therapeutic Benefit, the Multiple Ability Self-report Questionnaire (MASQ, cognitive function), the Multidimensional Health Assessment Questionnaire (MDHAQ), Multidimensional Fatigue Inventory (MFI), and diary assessments including current pain (morning, random daily, and evening reports); overall pain past week (weekly report), overall fatigue in the last week (weekly report), and the extent that pain kept the patient from caring for themselves (weekly report).

The test system of series [2] is fibromyalgia patients. Particulars: cited from earlier work.
Setting [3] is: both milnacipran treatment groups (BID and QD), up to 200 mg/day.

Structures can show the parent of a compound that is named as a salt.

Take `CCN(CC)C(=O)C1(c2ccccc2)CC1CN` (racemic) [milnacipran, Z-2-aminomethyl-1-phenyl-N, N-diethylcyclopropanecarboxamide hydrochloride]: in series [1] (100 mg milnacipran), the “MFI total score, Actual, Mean” value is given as 63.00; the “MFI total score, Actual, Median” value is listed as 64.0; the “MFI total score, Change from baseline, Mean” value is −5.39; the “MFI total score, Change from baseline, Median” value is reported as −4.0. Moreover, in series [1] (100 mg milnacipran), the “MFI total score, Change from baseline, Difference from Placebo” value is −1.80 and the “MFI total score, Change from baseline, LS Mean (SE)” value is reported as −5.47 (0.792). In addition, in series [1] (200 mg milnacipran), the “MFI total score, Actual, Mean” value was 64.15; the “MFI total score, Actual, Median” value is listed as 65.0; the “MFI total score, Change from baseline, Mean” value was −5.39; the “MFI total score, Change from baseline, Median” value is reported as −4.0. In series [1] (200 mg milnacipran), the “MFI total score, Change from baseline, Difference from Placebo” value is reported as −1.55 and the “MFI total score, Change from baseline, LS Mean (SE)” value was −5.63 (0.787). Further, in series [2] (100 mg BID), the “Therapy for the symptom of pain in FMS” value is on record as “effective acute (short-term) therapy”. Also, in series [2] (setting [3]), the “PGIC: completers who reported an improvement in their overall status” value was “over 70%” and the “PGIC: completers who reported worsening” value is recorded as 10%. In series [2] (milnacipran-treated patients), the “Deaths or serious adverse events associated with treatment” value is given as “no deaths or serious adverse events” and the “Patients in whom elevation in hepatic enzymes resulted in adverse events” value is given as 2%. The “Effect on fatigue, mood, global wellness, and function, BID vs QD dosing” value in series [2] (twice-daily (BID) vs once-daily (QD) dosing) was “approximately equally effective”. Moreover, in series [2] (twice-daily vs QD dosing), the “Treating pain, BID vs QD dosing” value was “more effective in treating pain than QD dosing”.
